Counter-ions that a name gives are not always drawn. Like-named read-outs stand apart in the source and are kept apart here.
Legend:
log P (HPLC-MS) = format: physicochemical
Haemonchus contortus = Haemonchus contortus test (HAEMCO), larval mortality; settings: 120 h; for Emax at 0.8 ppm: 5 dat, read-out: % Efficacy HAEMCO; for mortality at 20 ppm: application rate 20 ppm, after 5 days, read-out: activity (larval mortality, efficacy)
Description: Haemonchus contortus—Test (HAEMCO)
(§1) Solvent: dimethyl sulfoxide
(§2) To produce a suitable preparation of active compound, 10 mg of active compound are dissolved in 0.5 ml solvent, and the concentrate is diluted with “Ringer's solution” to the desired concentration.
Approximately 40 larvae of the red stomach worm (Haemonchus contortus) are transferred into a test tube containing compound solution.
After 5 days percentage of larval mortality are recorded. 100% efficacy means all larvae are killed, 0% efficacy means no larvae are killed.
Haemonchus contortus—Test (HAEMCO) Solvent: dimethyl sulfoxide

Cooperia curticei = Cooperia curticei test (COOPCU), larval mortality; settings: 120 h; for Emax at 0.8 ppm: read-out: % Efficacy COOPCU; for mortality at 20 ppm: read-out: activity (larval mortality, efficacy)
Description: Cooperia curticei—Test (COOPCU)
as §1, §2
Approximately 40 nematode larvae (Cooperia curticei) are transferred into a test tube containing the compound solution.
After 5 days percentage of larval mortality is recorded. 100% efficacy means all larvae are killed; 0% efficacy means no larvae are killed.
Cooperia curticei—Test (COOPCU) Solvent: dimethyl sulfoxide

Meloidogyne incognita [1] = assay: Meloidogyne incognita test (MELGIN), comparison example, solvent dimethylformamide with emulsifier; format: in vivo; settings: 504 h, 21 dat, read-out: % Efficacy MELGIN
Description: (§3) Meloidogyne incognita—Test (MELGIN)
To produce a suitable preparation of active compound, 1 part by weight of active compound is mixed with the stated amount of solvent, and the concentrate is diluted with emulsifier-containing water to the desired concentration.
Vessels are filled with sand, a solution of the active ingredient, a suspension containing eggs and larvae of Meloidogyne incognita and salad seeds. The salad seeds germinate and the seedlings grow. Galls develop on the roots.
After the specified period of time the nematicidal activity is determined on the basis of the percentage of gall formation. 100% means that no galls were found; 0% means that the number of galls found on the roots of the treated plants was equal to that in untreated control plants.

Meloidogyne incognita [2] = assay: Meloidogyne incognita test (MELGIN), gall formation, solvent acetone; format: in vivo; settings: application rate 20 ppm; after 14 days
Description: as §3
To produce a suitable preparation of active compound, 1 part by weight of active compound is mixed with the stated amount of solvent, and the concentrate is diluted with water to the desired concentration.
Vessels are filled with sand, a solution of the active ingredient, a suspension containing eggs and larvae of the southern root-knot nematode (Meloidogyne incognita) and salad seeds. The salad seeds germinate and the seedlings grow. Galls develop in the roots.
After 14 days the nematicidal activity is determined on the basis of the percentage of gall formation. 100% means that no galls were found; 0% means that the number of galls found on the roots of the treated plants was equal to that in untreated control plants.

[3] = test system: Heligmosomoides polygyrus; assay: Heligmosomoides polygyrus/mouse in vivo efficacy test; settings: mice; oral; four consecutive days during early patency; dose not given
Description: Heligmosomoides polygyrus/mouse
Mice, experimentally infected by Heligmosomoides polygyrus, were treated on four consecutive days during early patency. Test compounds were formulated as solutions or suspensions and applied orally.
Efficacy was determined as reduction of worm count in the intestine after necropsy compared to worm count in an infected and placebo-treated control group.

Work on CC(F)(CN)c1ccc(Cl)cc1Cl (stereo not drawn) [2-(2,4-dichlorophenyl)-2-fluoropropan-1-amine hydrochloride] yielded a chromatographic logP (log P (HPLC-MS)) of 0.89.

For CC(Cc1ccc(Cl)cc1Cl)NC(=O)c1ccccc1C(F)(F)F (stereo not drawn) [Example 1-32 known from WO-A 2012/118139, reference compound], the Emax at 0.8 ppm (Haemonchus contortus) was 80%, the Emax at 0.8 ppm (Cooperia curticei; 0.8 ppm, 5 dat) was 0% and the Emax at 2 ppm (Meloidogyne incognita [1]) was 15%.

With CC(F)(CNC(=O)c1ccccc1C(F)(F)F)c1ccc(Cl)cc1Cl (stereo not drawn) [Example 1-406, N-[2-(2,4-dichlorophenyl)-2-fluoropropyl]-2-(trifluoromethyl)benzamide] the “activity (nematicidal, gall formation)” value (Meloidogyne incognita [2]) was 100% and the chromatographic logP (log P (HPLC-MS)) was 3.7.

With CC(F)(CNC(=O)c1ccccc1C(F)(F)F)c1ccc(Cl)cc1Cl (stereo not drawn) [Example 1-393, N-[2-(2,4-dichlorophenyl)-2-fluoropropyl]-2-(trifluoromethyl)benzamide] the “activity (nematicidal, gall formation)” value (Meloidogyne incognita [2]) was 100%, the mortality at 20 ppm (Haemonchus contortus) was 100% and the mortality at 20 ppm (Cooperia curticei) was 100%.

With O=C(NCC(F)c1ccccc1C(F)(F)F)c1ccccc1C(F)(F)F (stereo not drawn) [Example 1-399, N-{2-fluoro-2-[2-(trifluoromethyl)phenyl]ethyl}-2-(trifluoromethyl)benzamide] the mortality at 20 ppm (Haemonchus contortus) was 100%.

With O=C(NCC(F)(F)c1ccc(Cl)cc1Cl)c1ccccc1C(F)(F)F [Example 1-1, N-[2-(2,4-dichlorophenyl)-2,2-difluoroethyl]-2-(trifluoromethyl)benzamide] the “activity (nematicidal, gall formation)” value (Meloidogyne incognita [2]) was 100%, the “activity (reduction of worm count in the intestine vs placebo-treated control)” value [3] was 65% and the Emax at 0.8 ppm (Haemonchus contortus) was 100%. For the same molecule, the mortality at 20 ppm (Haemonchus contortus) was 100%, the Emax at 0.8 ppm (Cooperia curticei) was 100% and the mortality at 20 ppm (Cooperia curticei) was 100%. It also gave an Emax at 2 ppm (Meloidogyne incognita [1]) of 95%.

For O=C(NCC(F)c1ccccc1Cl)c1ccccc1C(F)(F)F (stereo not drawn) [Example 1-400, N-[2-(2-chlorophenyl)-2-fluoroethyl]-2-(trifluoromethyl)benzamide], the mortality at 20 ppm (Haemonchus contortus) was 100%.
